This is an account of results in patent publication US8426174B2, “Method for the production of 2-butanol” (Butamax(TM) Advanced Biofuels LLC, priority 2007, dated 2013).

Experiment [1] relates to Lactobacillus plantarum PN0512. Kind of experiment: Growth of L. plantarum PN0512 in the presence of butanols at different temperatures. In kind it is cell-based. Set-up: key to Growth at 37° C. / Growth at 30° C. / Growth at 25° C.: +: growth observed as an increase in OD600.; −: no growth observed, i.e. no change in OD600. The protocol:
Tolerance levels of bacterial strain Lactobacillus plantarum PN0512 (ATCC # PTA-7727) were determined at 25° C., 30° C. and 37° C. as follows. The strain was cultured in S30L medium (i.e., 10 mM ammonium sulfate, 5 mM potassium phosphate buffer, pH 7.0, 50 mM MOPS, pH 7.0, 2 mM MgCl2, 0.7 mM CaCl2, 50 μM MnCl2, 1 μM FeCl3, 1 μM ZnCl2, 1.72 μM CuCl2, 2.53 μM CoCl2, 2.42 μM Na2MoO4, 2 μM thiamine hydrochloride, 10 mM glucose, and 0.2% yeast extract). An overnight culture in the absence of any test compound was started in 15 mL of the S30L medium in a 150 mL flask, with incubation at 37° C. in a shaking water bath. The next morning, the overnight culture was diluted into three 500 mL flasks containing 150 mL of fresh medium to an initial OD600 of about 0.08. Each flask was incubated in a shaking water bath, one each at 25° C., 30° C. and 37° C. Each large culture was allowed to acclimate at the test temperature for at least 0.5 h. […] Growth was followed by measuring OD600 for six hours after addition of the compounds.

Experiment [2] concerns Klebsiella pneumoniae glycerol dehydratase. The experiment can be described thus: Glycerol dehydratase butanediol dehydratase activity, crude cell free extract. It is filed as biochemical. The settings on record: 10 mM meso-2,3-butanediol, 12 μM coenzyme B12, pH 8.2, 37° C. The source says: Glycerol dehydratase (E.C. 4.2.1.30) and diol dehydratase (E.C. 4.2.1.28), while structurally related, are often distinguished in the art based on various differences that include substrate specificity. […] The recombinant E. coli strain KLP23/pSYCO12, comprising Klebsiella pneumoniae genes encoding the multiple subunits of glycerol dehydratase (alpha: SEQ ID NO:145 (coding region) and 146 (protein); beta: SEQ ID NO: 147 (coding region) and 148 (protein); and gamma: SEQ ID NO: 149 (coding region) and 150 (protein)) and Klebsiella pneumoniae genes encoding the multiple subunits of glycerol dehydratase reactivase (large subunit, SEQ ID NO: 151 (coding region) and 152 (protein); and small subunit, SEQ ID NO: 153 (coding region) and 154 (protein)), is described in Emptage et al. U.S. Pat. No. 6,514,733 and in WO 2003089621, which are herein incorporated by reference. A crude, cell free extract of KLP23/pSYCO12 was prepared by methods known to one skilled in the art. […] The formation of 2-butanone was monitored by HPLC (Shodex SH-1011 column and SH-G guard column with refractive index detection; 0.01 M H2SO4 as the mobile phase at a flow rate of 0.5 mL/min and a column temperature of 50° C.; 2-butanone retention time=40.2 min). The rate of 2-butanone formation by the glycerol dehydratase preparation was determined to be 0.4 nmol/min/mg of crude protein.

In the case of `CCC(C)O` (stereo not drawn) [2-butanol], the “Growth at 37° C.” value in experiment [1] (1.8 % w/v 2-butanol), in experiment [1] (2.1 % w/v 2-butanol), in experiment [1] (2.9 % w/v 2-butanol), in experiment [1] (3.1 % w/v 2-butanol), in experiment [1] (3.6 % w/v 2-butanol) and in experiment [1] (3.8 % w/v 2-butanol) was “+” in each case. For the same molecule, the “Growth at 37° C.” value in experiment [1] (4.3 % w/v 2-butanol) is recorded as “+”; in experiment [1] (4.7 % w/v 2-butanol), “−”; in experiment [1] (5.2 % w/v 2-butanol), “−”; in experiment [1] (5.6 % w/v 2-butanol), “−”; in experiment [1] (6.0 % w/v 2-butanol), “−”; in experiment [1] (6.4 % w/v 2-butanol) it was “−”. Moreover, the “Growth at 37° C.” value in experiment [1] (7.3 % w/v 2-butanol) is on record as “−”. For the same molecule, the “Growth at 25° C.” value in experiment [1] (2.9 % w/v 2-butanol), in experiment [1] (3.8 % w/v 2-butanol), in experiment [1] (4.3 % w/v 2-butanol), in experiment [1] (4.7 % w/v 2-butanol), in experiment [1] (4.9 % w/v 2-butanol) and in experiment [1] (5.2 % w/v 2-butanol) was “+” in each case. For the same molecule, in experiment [1] (5.6 % w/v 2-butanol), the “Growth at 25° C.” value is reported as “−”. Further, the “Growth at 30° C.” value in experiment [1] (2.9 % w/v 2-butanol) is recorded as “+”; in experiment [1] (3.8 % w/v 2-butanol), “+”; in experiment [1] (4.0 % w/v 2-butanol), “+”; in experiment [1] (4.3 % w/v 2-butanol), “+”; in experiment [1] (4.7 % w/v 2-butanol), “+”; in experiment [1] (4.9 % w/v 2-butanol), “−”. Further, in experiment [1] ([…] w/v 2-butanol), the “Growth at 30° C.” value is “+”. Besides, the “concentration in which growth was observed” value in experiment [1] (25° C.) is recorded as 5.2%; in experiment [1] (30° C.), 4.7%; in experiment [1] (37° C.), 4.3%. Further, the “concentration in which growth was not observed” value in experiment [1] (30° C.) was 4.9%; in experiment [1] (37° C.), 4.5%.

Regarding `CC(O)C(C)O` (stereo not drawn) [meso-2,3-butanediol], the “rate of 2-butanone formation” value in experiment [2] was 0.4 nmol/min/mg of crude protein.
